Test results as given in patent US20210223252A1, “METHODS FOR PROTEOMIC PROFILING USING NON-NATURAL AMINO ACIDS” (California Institute of Technology, priority 2004, published 2021).

Key:
[1] = test system: dissociated hippocampal neurons; assay: AHA toxicity by whole neuron morphology (GFP reporter); type: cell-based, rat; details: 2 hrs incubation
Experimental: Dissociated hippocampal neuron cultures were prepared from newborn rat pups (PO) as outlined in (Banker and Goslin, 1990), Neurons were plated at a density of 15,000-45,000 cells/cm^2 onto poly-D-lysine coated cell culture dishes or onto poly-D-lysine and growth factor reduced matrigel (BD Biosciences) coated polycarbonate nets with a pore size of 3 (Transwell, Corning) for the preparation of isolated dendrites. The cultures were maintained and allowed to mature in growth medium (Neurobasal-A supplemented with B27 and GlutaMAX-1) for 14 to 21 days before use. The use of this growth medium suppressed glial proliferation, which was even more reduced by application of Ara-C (5 μM final concentration). To supplement glial neurotrophic factors, 25% conditioned growth media from glial and cortical cultures were added to the growth media. Isolated dendrites were obtained from Transwell cultures by removing the cell body layer with a sterile cell lifter after change to HBS. For immunolabeling after AHA-incorporation and cycloaddition with BiotinCyclooctyne, neurons are fixed at room temperature with 4% paraformaldehyde for 20 minutes. […] Images are recorded through standard emission filters at contrast settings for which the crossover between the two channels is negligible. […]

HEK293 cells [2] = assay: Ubiquitin signal on Western blot of whole lysates (protein degradation); type: cell-based; details: treated two hours
Experimental: To show the specificity of this technique for the detection of newly synthesized proteins, HEK293 cells were incubated for 2 hrs with AHA in the presence or absence of a protein synthesis inhibitor (Anisomycin or Cycloheximide). After incubation, cells were lysed and subjected to [3+2]cycloaddition with the biotin-bearing alkyne-linker Biotin-PEO-Propargylamide, followed by Western blot analysis with an anti-Biotin-antibody. […] The potential for increased protein degradation was measured by examining the ubiquitin signal strength on a Western blot from whole lysates of HEK293 cells, which were treated with AHA, methionine or incubation buffer for two hours.

[3] = test system: E. coli and mammalian cells; assay: Protein degradation upon introduction of AHA; type: cell-based; details: studies in E. coli and experiments in mammalian cells
HEK293 cells [4] = assay: Detection of newly synthesized proteins: AHA labelling, [3+2]cycloaddition with Biotin-PEO-Propargylamide, anti-Biotin Western blot; type: cell-based; details: HEK293 cells incubated 2 hrs with AHA in the presence of the protein synthesis inhibitor
Experimental: In embodiments using [3+2] Cycloaddition, the following exemplary protocol may be used. Briefly, AHA, Biotin-PEO-Propargylamide and the triazole ligand were prepared as described previously. The tandem featured alkyne tag was synthesized by GenScript Corporation. Biotin-Cyclooctyne is a generous gift from Carolyn Bertozzi. DIO-L-leucine was purchased from Sigma. In all culture experiments, growth medium was removed from HEK293 cells, whole neuronal cultures or isolated dendrites were replaced with HEPES-buffered solution (HBS) with 2.86 mM AHA, and 2.86 mM methionine for control experiments. After incubation at 37° C., 5% CO2, cells were washed with PBS-MC (1 mMMgCl2, 0.1 mM CaCl2 in PBS) to remove excess amounts of AHA and methionine. SNS and other biochemical fractions are incubated with 2.86 mM AHA or 2.86 mM methionine under agitation at 37° C. and washed in StimBuffer after incubation. […]
To show the specificity of this technique for the detection of newly synthesized proteins, HEK293 cells were incubated for 2 hrs with AHA in the presence or absence of a protein synthesis inhibitor (Anisomycin or Cycloheximide). […] The potential for increased protein degradation was measured by examining the ubiquitin signal strength on a Western blot from whole lysates of HEK293 cells, which were treated with AHA, methionine or incubation buffer for two hours.

Compound: [N-]=[N+]=NCC[C@H](N)C(=O)O [AHA, azidohomoalanine]
- gross morphology of neurons compared to methionine controls ([1]; 12 DIV neurons expressing GFP reporter): no change in the gross morphology
- toxicity to neurons ([1]; primary/dissociated hippocampal neuronal cultures, equimolar AHA or methionine control): not toxic
- ubiquitination compared to buffer or methionine controls (HEK293 cells [2]): No increased ubiquitination
- increased protein degradation [3]: no evidence of increased protein degradation

Compound: C[C@@H]1C[C@@H]([C@H](O)CC2CC(=O)NC(=O)C2)C(=O)[C@@H](C)C1 [Cycloheximide]
- anti-Biotin Western blot signal of AHA-labelled newly synthesized proteins (HEK293 cells [4]): No signal was detected

Compound: COc1ccc(C[C@H]2NC[C@H](O)[C@H]2OC(C)=O)cc1 [Anisomycin]
- anti-Biotin Western blot signal of AHA-labelled newly synthesized proteins (HEK293 cells [4]): No signal was detected
